Consider two sequences from patent US9243035B2, “Peptides effective in the treatment of conditions requiring the removal or destruction of cells” (NYMOX CORPORATION, priority 2013, dated 2016).

No end group written: not given here.

In one test the test system is rat prostate. Put plainly: Intraprostatic infusion of peptide in rats, histology and prostate volume after 7 days. In kind it is in vivo, Sprague-Dawley rats. Further details: key to Histological Changes of Cell Death at 7 Days: −: Absent; +: Present, Minimal; ++: Present, Moderate; +++: Present, Moderate and Diffuse; ++++: Present, Diffuse and Extensive. The note with it: for histological effect on prostate at sites of injection: rat prostate, 7 days; for Histological Changes of Cell Death at 7 Days / reduction in prostate volume compared to controls: rat; for Histological Changes of Cell Death at 7 Days: 7 days after intraprostatic injection; for reduction in prostate volume compared to controls: intraprostatic, 300 μl of 1 mg/mL in PBS pH 7.4, sacrificed after 7 days, average. As to the method: Seven normal male 300 gram weight Sprague-Dawley rats were given general anesthesia and given peptide NYMAP1385 by intraprostatic infusion. The injections consisted of 300 μl of peptide NYMAP1385 1 mg/mL in PBS pH 7.4. […] Rats were painlessly sacrificed after 7 days. Prostate glands were dissected, fixed in 10% buffered formalin for 24 hours, embedded in paraffin, sectioned, and stained with H & E. For each animal the entire prostate gland was embedded and sectioned. All stained sections were examined histologically. For each animal the entire prostate gland was embedded and sectioned. All stained sections were examined histologically and measured. For each prostate at least 2 histological sections were examined, and for each histological section two cross-sectional diameters (D) at 90° from each other were measured (total of ≧4 measurements per prostate). The mean diameter from these measurements for each prostate was used to estimate volume according to V=4/3*π*(D/2)^3
Eight normal male 300 gram Sprague-Dawley rats were injected in the prostate as in the above Example 2, except they were injected with peptide NYMAP13134. Rats were painlessly sacrificed after 7 days and their prostate glands were examined as in Example 2. For each animal the entire prostate gland was embedded and sectioned. All stained sections were examined histologically and measured. For each prostate at least 2 histological sections were examined, and for each histological section two cross-sectional diameters (D) at 90° from each other were measured (total of ≧4 measurements per prostate). The mean diameter from these measurements for each prostate was used to estimate volume according to V=4/3*π*(D/2)^3
(§1) Histological changes were assessed on the following scale: −Absent • +Present, Minimal • ++Present, Moderate • +++Present, Moderate and Diffuse • ++++Present, Diffuse and Extensive

For test [1], the system named is tissue at sites of injection (liver, prostate, extremity skeletal muscle). The experiment in a line: Injection of peptide into liver, prostate and extremity skeletal muscle of rats, histopathology and prostate volume at 72 hours. The note with it: rat; for reduction in prostate volume compared to controls: 100 to 400 μL of 1 mg/mL in saline, sacrificed at 72 hours, average; for Histological Changes of Cell Death at 72 Hours: 72 hours after injection; for histopathological effect on tissue at sites of injection: liver, prostate, muscle, 72 hours. More on the design: key to Histological Changes of Cell Death at 72 Hours: −: Absent; +: Present, Minimal; ++: Present, Moderate; +++: Present, Moderate and Diffuse; ++++: Present, Diffuse and Extensive. In kind it is in vivo, Sprague-Dawley male rats. As for the experimental part:
After open laparotomy under general anesthesia, 8 normal 3 month old Sprague-Dawley male rats were injected in liver and in prostate, and in extremity skeletal muscle, with peptide NYMAP1385 in saline in quantities of 100 to 400 μL at a concentration of 1 mg/mL delivered from plastic syringes through stainless steel 26 gauge needles.
The individual foci of infiltration were excised, fixed in 10% formalin, embedded in paraffin, and stained and examined by standard histopathological methods. For each animal the entire prostate gland was embedded and sectioned. All stained sections were examined histologically and measured. For each prostate at least 4 histological sections were examined, and for each histological section two cross-sectional diameters (D) at 90° from each other were measured (total of ≧4 measurements per prostate). The mean diameter from these measurements for each prostate was used to estimate volume according to V=4/3*π(D/2)^3 […]
as §1

In the case of FHDLKKHCIK [NYMAP13134], in the test on rat prostate, the “histological effect on prostate at sites of injection” value is “significant cell loss and atrophy in the prostate”; the “Histological Changes of Cell Death at 7 Days” value is on record as “++++”; the “reduction in prostate volume compared to controls” value (from here on “reduction in prostate volume”) worked out at 75.2%. For the same sequence, in test [1], the “reduction in prostate volume” value is given as 72.5%; the “Histological Changes of Cell Death at 72 Hours” value is reported as “+++”; the “histopathological effect on tissue at sites of injection” value was “cell death and necrosis of tissue at the injection sites”.
Consider IDLLQGRTRNRC [NYMAP1385], for which, in the test with rat prostate, the “histological effect on prostate at sites of injection” value was “necrosis of tissue at the injection sites with loss of glandular epithelium, flattening and atrophy”; the “Histological Changes of Cell Death at 7 Days” value was “++”; the “reduction in prostate volume” value is recorded as 44.8%. Also, in test [1], the “reduction in prostate volume” value is reported as 57.8%; the “Histological Changes of Cell Death at 72 Hours” value is “++++”; the “histopathological effect on tissue at sites of injection” value was “variable amounts of apoptosis and necrosis of tissue at the injection sites”.
